Here are results for four compounds from the NIST ThermoML archive (doi:10.1021/je6005168).

± gives the expanded uncertainty stated by the source.

This data set in a line: molar heat capacity at constant pressure. The following applies: 101.33 kPa, Crystal, Small sample (50 mg) DSC.

For the compound `Nc1c[nH]c(=O)[nH]c1=O` [2,4(1H,3H)-pyrimidinedione, 5-amino-], the “molar heat capacity at constant pressure” value reads like this: (298.15 K) 145 ± 2.9 J/K/mol; (303.15 K) 145.5 ± 2.9 J/K/mol; (308.15 K) 146.2 ± 2.9 J/K/mol; (313.15 K) 147 ± 2.9 J/K/mol; (318.15 K) 148 ± 3 J/K/mol; (323.15 K) 148.4 ± 3 J/K/mol. The “molar heat capacity at constant pressure” value is, setting by setting: (328.15 K) 149.1 ± 3 J/K/mol; (333.15 K) 150 ± 3 J/K/mol; (338.15 K) 150.6 ± 3 J/K/mol; (343.15 K) 151.3 ± 3 J/K/mol.

Take `Cn1c(N)cc(=O)n(C)c1=O` [6-amino-1,3-dimethyluracil]: the “molar heat capacity at constant pressure” value (298.15 K) is recorded as 189 ± 3.8 J/K/mol; the “molar heat capacity at constant pressure” value (303.15 K) was found to be 191 ± 3.8 J/K/mol; the “molar heat capacity at constant pressure” value (308.15 K) came out at 193.1 ± 3.9 J/K/mol; the “molar heat capacity at constant pressure” value (313.15 K) turned out to be 195.2 ± 3.9 J/K/mol; the “molar heat capacity at constant pressure” value (318.15 K) came to 197.3 ± 3.9 J/K/mol; the “molar heat capacity at constant pressure” value (323.15 K) is listed as 199.5 ± 4 J/K/mol. Moreover, the “molar heat capacity at constant pressure” value (328.15 K) was found to be 201.6 ± 4 J/K/mol, the “molar heat capacity at constant pressure” value (333.15 K) is given as 204 ± 4.1 J/K/mol, the “molar heat capacity at constant pressure” value (338.15 K) was 206 ± 4.1 J/K/mol and the “molar heat capacity at constant pressure” value (343.15 K) was 208 ± 4.2 J/K/mol.

For the compound `Cn1c(N)cc(=O)[nH]c1=O` [6-amino-1-methyluracil], the “molar heat capacity at constant pressure” value reads like this: (298.15 K) 166.2 ± 3.3 J/K/mol; (303.15 K) 167 ± 3.3 J/K/mol; (308.15 K) 168 ± 3.4 J/K/mol; (313.15 K) 168.5 ± 3.4 J/K/mol; (318.15 K) 169.2 ± 3.4 J/K/mol; (323.15 K) 170 ± 3.4 J/K/mol. Moreover, the “molar heat capacity at constant pressure” value (328.15 K) is on record as 171 ± 3.4 J/K/mol, the “molar heat capacity at constant pressure” value (333.15 K) was 171.4 ± 3.4 J/K/mol, the “molar heat capacity at constant pressure” value (338.15 K) was 172.2 ± 3.4 J/K/mol and the “molar heat capacity at constant pressure” value (343.15 K) is recorded as 173 ± 3.5 J/K/mol.

For `Nc1cc(O)nc(O)n1` [6-aminouracil], the “molar heat capacity at constant pressure” value came out at 147 ± 2.9 J/K/mol (298.15 K); 147.6 ± 3 J/K/mol (303.15 K); 148.2 ± 3 J/K/mol (308.15 K); 149 ± 3 J/K/mol (313.15 K); 149.6 ± 3 J/K/mol (318.15 K); 150.3 ± 3 J/K/mol (323.15 K). For the same compound, the “molar heat capacity at constant pressure” value stood at 151 ± 3 J/K/mol (328.15 K), 151.6 ± 3 J/K/mol (333.15 K), 152.3 ± 3 J/K/mol (338.15 K) and 153 ± 3.1 J/K/mol (343.15 K).
